Assay results: patent US20090047235A1, “Paratransgenesis to Control Termites or Other Social Insects” (priority 2007, published 2009)

What was measured:
[1] = system: termite protozoa (Pseudotrichonympha grassii Koidzumi, Holomastigotoides hartmanni Koidzumi, Spirotrichonympha leidyi Koidzumi); assay: In vitro lytic peptide test on anaerobic cultures of termite hindgut protozoa; type: cell-based; conditions: 50 μM peptide, after 5-10 minutes
Text: (§1) Three protozoal species (Pseudotrichonympha grassii Koidzumi, Holomastigotoides hartmanni Koidzumi, and Spirotrichonympha leidyi Koidzumi) from the termite hindgut were maintained for 24 hrs in vitro, a sufficient time to allow testing of lytic peptides. The protozoa were removed from the termite hindgut in an anaerobic glove-box, and placed in sterile, sparged (Hydrogen 2.5%, Carbon dioxide 5% and Nitrogen 92.5%) Trager U (pH 7.0) saline solution. Positive controls for testing lytic peptides were established and validated with these cultures. The efficacy of the lytic peptides was then routinely tested prior to experiments to confirm both aerobic activity (using the “standard” T. pyriformis) and anaerobic activity (using cultures of the termite protozoa). One hundred percent mortality was observed after 5-10 minutes when any of these protozoa were treated with any one of three lytic peptides (hecate, melittin, or cecropin) at a 50 μM concentration, confirming the toxicity of the lytic peptides towards termite protozoa in an anaerobic environment that mimicked termite hindgut conditions.
(§2) The efficacy of each lytic peptide solution was confirmed using T. pyriformis and termite protozoa cultures in vitro before each microinjection test. A 5 ml overnight culture of T. pyriformis was washed three times in sterile 10 mM Tris-HCl (pH 7.4), and suspended in 1 ml 10 mM Tris-HCl (pH 7.4). Subsequently, 100 μl aliquots were placed in a Sigmacote™-treated, 96-well microplate. The lytic peptides were dissolved in 10 mM Tris-HCl. A range of concentrations (25-500 μM) of lytic peptide was added to each of several wells, and the remaining wells were treated with 10 mM Tris-HCl (pH 7.4) as control. After confirming aerobic activity of the lytic peptide concentrations against T. pyriformis, lytic peptide efficacy was then tested against anaerobic cultures of termite protozoa. Sparged lytic peptide was added anaerobically to the sparged cultures of termite protozoa, and mortality was observed.

Tetrahymena pyriformis = assay: In vitro lytic peptide test on aerobic Tetrahymena pyriformis cultures; type: cell-based; conditions: 50 μM peptide, after 5-10 minutes
Procedure: The initial positive control for testing the efficacy of lytic peptide solutions was the aerobic, laboratory standard protozoan Tetrahymena pyriformis, cultures of which were purchased from Carolina Biological (#13-1182A) and maintained in proteose peptone media. Before each experiment, lytic peptide activity was tested using T. pyriformis.
as §1
as §2, with “After confirming aerobic activity of the lytic peptide concentrations against T. pyriformis, lytic peptide efficacy was then tested against anaerobic cultures of termite protozoa. Sparged lytic peptide was added anaerobically to the sparged cultures of termite protozoa, and mortality was observed.” left out

[2] = system: protozoa in the hindgut of termite workers; assay: In vivo microinjection of lytic peptides into the termite hindgut; conditions: for relative effectiveness against protozoa in vivo among peptides tested: hindgut microinjection, 50 μM; for time to defaunation of injected termite workers: ~0.5 μl of 50 μM lytic peptide injected into hindgut
Text: A termite microinjection protocol was used to confirm directly the effect of lytic peptide in the hindgut. We first optimized the protocol by finding preferred conditions for each of the following: the time to immobilize a termite by cooling on ice; suitable methods for anchoring the termite in place for microinjection; and the maximum volume that could consistently be injected into the hindgut without causing direct trauma. Microinjection directly to the termite hindgut avoided the possibility of peptide degradation by non-specific protease activity in the foregut or midgut.
Termite workers were immobilized by chilling on ice for 1.5 min, and were then mechanically aspirated, head-first, into a modified pipette tip that had been trimmed to expose the terminus of the termite. This “termite holder” was attached to a micromanipulator, and the insect was advanced to insert a Sigmacote™-treated, fine glass needle into the anus of the termite. Lytic peptide or control solution was injected under the control of a high-speed, electronic foot pedal with pulse length control, to ensure that a constant volume was reproducibly injected into each insect. Approximately 0.5 μl of 10 mM Tris-HCl (pH 7.4) (control) or 0.5 μl of 50 μM lytic peptide dissolved in 10 mM Tris-HCl (pH 7.4) was injected into the hindgut of each termite. A second control group of non-injected termite workers was also included. The termites were housed in 3 cm Petri dishes, in which damp filter paper was provided. At 24, 48, and 72 hrs guts from randomly selected termites from each treatment were extirpated, and observations were made of the presence and motility of protozoa.

[3] = system: termite workers (gut protozoa); assay: Defaunation of termites by feeding Metronidazole-treated filter paper; type: in vivo; conditions: for time to death of defaunated termites: Metronidazole feeding
Procedure: Using an aspirator, six groups of 100 termite workers each were collected and placed in Petri dishes containing damp filter paper. In addition, 10 soldiers were added to each group to enhance the overall survivorship rate. […] The remaining three groups of termites were transferred to Petri dishes containing paper that had been dampened with autoclaved tap water. All six replicates were transferred to an incubator and mortality was recorded every 24 hours. […] Once defaunation had been confirmed, all six groups were thereafter provided only with filter paper dampened with sterile tap water. Mortality was recorded each day. Statistically significant differences in mortality between treatment groups and control groups were established using 95% confidence intervals.

[4] = system: termite symbiotic protozoa; conditions: preliminary data, poster 2002; cited from earlier work
[5] = system: termite workers (gut protozoa); assay: Termite feeding experiments with yeast expressing lytic peptide; type: in vivo; conditions: summary statement
Procedure: Lytic peptide-expressing and control Kluyveromyces lactis strains were used in termite feeding experiments. Aliquots of 2 ml YPGal in Sigmacote™-treated 15 ml Falcon tubes were inoculated with yeast, which were then grown for 3 days, with shaking at 225 rpm at 30° C. The strains grown were K. lactis engineered with the expression vector (control), K. lactis expressing the control protein MBP, and K. lactis expressing a lytic peptide gene (either hecate or hecate-GFP fusion). The cultures were washed three times with sterile, deionized water, and re-suspended in 500 μl sterile 10 mM galactose. Galactose was used because the coding sequences were under the control of the LAC4 promoter, a strong promoter whose activity is induced by galactose. Secretion of active lytic peptide by the transformed K. lactis into the growth media was verified using in vitro cultures of the protozoa T. pyriformis.
Termites were collected in New Orleans, La., and were maintained on damp cardboard in plastic buckets at room temperature. Only termites that had been held in the laboratory less than 4 weeks were used in the feeding experiments. […]
Termite mortality was recorded every three days. The number of viable termites was also recorded, as cannibalism in laboratory colonies has sometimes been observed. […]

CC[C@H](C)[C@H](NC(=O)CN)C(=O)NCC(=O)N[C@@H](C)C(=O)N[C@H](C(=O)N[C@@H](CC(C)C)C(=O)N[C@@H](CCCCN)C(=O)N[C@H](C(=O)N[C@@H](CC(C)C)C(=O)N[C@H](C(=O)N[C@H](C(=O)NCC(=O)N[C@@H](CC(C)C)C(=O)N1CCC[C@H]1C(=O)N[C@@H](C)C(=O)N[C@@H](CC(C)C)C(=O)N[C@H](C(=O)N[C@@H](CO)C(=O)N[C@@H](Cc1c[nH]c2ccccc12)C(=O)N[C@H](C(=O)N[C@@H](CCCCN)C(=O)N[C@@H](CCCNC(=N)N)C(=O)N[C@@H](CCCCN)C(=O)N[C@@H](CCCNC(=N)N)C(=O)N[C@@H](CCC(N)=O)C(=O)N[C@@H](CCC(N)=O)C(N)=O)[C@@H](C)CC)[C@@H](C)CC)[C@@H](C)O)[C@@H](C)O)C(C)C)C(C)C [melittin]
mortality of termite protozoa [1]: One hundred
mortality of T. pyriformis (Tetrahymena pyriformis): One hundred
relative effectiveness against protozoa in vivo among peptides tested [2]: more effective against protozoa in vivo
time to defaunation of injected termite workers [2]: 72 h

cecropin
mortality of termite protozoa [1]: One hundred
mortality of T. pyriformis (Tetrahymena pyriformis): One hundred

Cc1ncc([N+](=O)[O-])n1CCO [Metronidazole]
mortality of defaunated termites versus controls ([3]; 95% confidence intervals did not overlap): significantly higher mortality
time to death of defaunated termites [3]: six
time to death of defaunated termites ([3]; listed as metronidazole): six and about six
time to defaunation of termite workers ([3]; filter paper treated with 400 μL Metronidazole (2 g/L)): ≤ 7 days

falalkalkk alkklkkalk kal (FALALKALKKALKKLKKALKKA; This is the designed peptide known as hecate.)
mortality of termite protozoa [1]: One hundred
killing of termite symbiotic protozoa in vitro [4]: would kill termite symbiotic protozoa
mortality of T. pyriformis (Tetrahymena pyriformis): One hundred
relative effectiveness against protozoa in vivo among peptides tested [2]: more effective against protozoa in vivo
time to defaunation of injected termite workers [2]: 72 h
effect on protozoa in the termite gut [5]: kill all (or at least most) species of protozoa in the termite gut
time to death of the insect without protozoa [5]: about six
